The record followed here is BindingDB's records for doi:10.1021/acs.jmedchem.3c00566 (Sichuan University, 2023).

For assay [1], the target named is Cyclin-dependent kinase 2 (Homo sapiens, UniProt P24941). Put plainly: Inhibition of CDK2 (unknown origin) expressed in baculovirus infected Sf9 cells in presence of [gamma-33p]-ATP and ATP.
In assay [2] the target is Cyclin-dependent kinase 5/p25. Nature of the assay: Inhibition of CDK5/p25 (unknown origin).
The target of assay [3] is Cyclin-dependent kinase 2/cyclin A. Put plainly: Inhibition of CDK2/cyclin A (unknown origin).

Broadly, the IC50 is the concentration at which inhibition is half-maximal. Take `CC(C)c1n[nH]c2c(NCc3ccc(-c4ccccn4)cc3)nc(NCC(C)(C)O)nc12`: in assay [1], the IC50 is 9 nM.
Take `Cc1cc(S(=O)(=O)NCCOCCOCCOCCOCCNc2cccc3c2C(=O)N(C2CCC(=O)NC2=O)C3=O)ccc1Nc1ncc(Br)c(Nc2cccc(F)c2C(N)=O)n1` (stereo not drawn): the IC50 in assay [2] was found to be 6.8 nM.
As for `O=C(Nc1csc(Cc2c(Cl)cccc2Cl)n1)NN1CCOCC1` [1-[2-(2,6-Dichloro-benzyl)-thiazol-4-yl]-3-morpholin-4-yl-urea], the IC50 in assay [3] turned out to be 10000 nM.
